System: Patient-derived low passage pancreatic tumor xenografts
Assay: Tumor regression in patient-derived pancreatic tumor xenografts
Assay type: in vivo, nude mice
Settings: 11 xenograft cases; ABI 30 mg/kg i.v. daily x5, GEM 100 mg/kg i.p. twice a week for 4 weeks
Description: Eleven Patient-derived low passage pancreatic tumor xenografts were implanted (s.c) in nude mice. Mice with tumor size of ˜200 mm3 were randomized to four treatment groups (7-10 tumors/group) and treated with 1) Vehicle; 2) Abraxane® (ABI) 30 mg/kg once daily i.v for five consecutive days; 3) Gemcitabine (GEM) 100 mg/kg twice a week for 4 weeks i.p and 4) GEM+ABI in the above mentioned dose and frequency for 4 weeks. Tumor size was measured twice per week using a digital caliper. Number of tumors that regressed more than 50% of its initial size in each tumor xenografts were noted. Extent of stromal desmoplasia and endothelial cell content in control and treated xenografts were determined by Masson's Trichrome staining, IHC and qRTPCR.

SMILES: Nc1ccn([C@@H]2O[C@H](CO)[C@@H](O)C2(F)F)c(=O)n1 [GEM, gemcitabine]
- cases that produced >50% regression of tumor size: 2 of 11
